Test results from ChEMBL document CHEMBL2062359, “Pyrimidinopyrimidine inhibitors of ketohexokinase: exploring the ring C2 group that interacts with Asp-27B in the ligand binding pocket” (Bioorg Med Chem Lett, 2012).
One block for each compound: values may come before it.

Tests used:
[1] = molecular target: T1, Ketohexokinase (Homo sapiens, UniProt P50053); experiment: Inhibition of recombinant human hepatic KHKC
T1 sequence (P50053 whole entry): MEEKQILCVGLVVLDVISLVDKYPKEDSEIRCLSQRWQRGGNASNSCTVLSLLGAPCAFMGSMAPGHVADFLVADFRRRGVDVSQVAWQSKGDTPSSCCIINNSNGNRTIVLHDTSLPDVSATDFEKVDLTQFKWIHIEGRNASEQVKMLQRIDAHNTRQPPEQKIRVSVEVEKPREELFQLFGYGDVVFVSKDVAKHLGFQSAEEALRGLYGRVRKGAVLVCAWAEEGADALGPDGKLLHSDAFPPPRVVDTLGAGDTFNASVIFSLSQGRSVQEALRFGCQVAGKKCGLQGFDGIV

[2] = molecular target: T1, Ketohexokinase; experiment: Inhibition of KHKC in human HepG2 cells assessed as level of fructose-1-phosphate; assay type: cell-based
[3] = molecular target: Tyrosine-protein kinase ABL1 (Homo sapiens, UniProt P00519); experiment: Inhibition of ABL1 by FRET assay
[4] = molecular target: Activin receptor type-1B (Homo sapiens, UniProt P36896); experiment: Inhibition of ALK4 by FRET assay
[5] = molecular target: RAC-alpha serine/threonine-protein kinase (Homo sapiens, UniProt P31749); experiment: Inhibition of AKT1 by FRET assay
[6] = molecular target: AMP-activated protein kinase (AMPK) alpha-1/beta-1/gamma-1 (Homo sapiens, UniProt P54619+Q13131+Q9Y478); experiment: Inhibition of AMPK A1/B1/G1 by FRET assay; assay type: protein-complex assay
[7] = molecular target: Aurora kinase A (Homo sapiens, UniProt O14965); experiment: Inhibition of AURKA by FRET assay
[8] = molecular target: Calcium/calmodulin-dependent protein kinase type 1D (Homo sapiens, UniProt Q8IU85); experiment: Inhibition of CAMK1D by FRET assay
[9] = molecular target: Cyclin-dependent kinase 1/cyclin B1 (Homo sapiens, UniProt P06493); experiment: Inhibition of CDK1/cyclin B by FRET assay; assay type: protein-complex assay
[10] = molecular target: Serine/threonine-protein kinase Chk1 (Homo sapiens, UniProt O14757); experiment: Inhibition of CHEK1 by FRET assay
[11] = molecular target: Serine/threonine-protein kinase Chk2 (Homo sapiens, UniProt O96017); experiment: Inhibition of CHEK2 by FRET assay
[12] = molecular target: Casein kinase I isoform delta (Homo sapiens, UniProt P48730); experiment: Inhibition of CSNK1D by FRET assay
[13] = molecular target: Death-associated protein kinase 3 (Homo sapiens, UniProt O43293); experiment: Inhibition of DAPK3 by FRET assay
[14] = molecular target: Ephrin type-B receptor 1 (Homo sapiens, UniProt P54762); experiment: Inhibition of EPHB1 by FRET assay
[15] = molecular target: Glycogen synthase kinase-3 beta (Homo sapiens, UniProt P49841); experiment: Inhibition of GSK3B by FRET assay
[16] = molecular target: Interleukin-1 receptor-associated kinase 4 (Homo sapiens, UniProt Q9NWZ3); experiment: Inhibition of IRAK4 by FRET assay
[17] = molecular target: Tyrosine-protein kinase JAK2 (Homo sapiens, UniProt O60674); experiment: Inhibition of JAK2 by FRET assay
[18] = molecular target: Mitogen-activated protein kinase 13 (Homo sapiens, UniProt O15264); experiment: Inhibition of MAPK13 by FRET assay
[19] = molecular target: Serine/threonine-protein kinase 26 (Homo sapiens, UniProt Q9P289); experiment: Inhibition of MST4 by FRET assay
[20] = molecular target: Serine/threonine-protein kinase Nek2 (Homo sapiens, UniProt P51955); experiment: Inhibition of NEK2 by FRET assay
[21] = molecular target: High affinity nerve growth factor receptor (Homo sapiens, UniProt P04629); experiment: Inhibition of NTRK1 by FRET assay
[22] = molecular target: Serine/threonine-protein kinase PAK 3 (Homo sapiens, UniProt O75914); experiment: Inhibition of PAK3 by FRET assay
[23] = molecular target: Serine/threonine-protein kinase pim-2 (Homo sapiens, UniProt Q9P1W9); experiment: Inhibition of PIM2 by FRET assay
[24] = molecular target: Serine/threonine-protein kinase PLK3 (Homo sapiens, UniProt Q9H4B4); experiment: Inhibition of PLK3 by FRET assay
[25] = molecular target: cAMP-dependent protein kinase catalytic subunit alpha (Homo sapiens, UniProt P17612); experiment: Inhibition of PRKACA by FRET assay
[26] = molecular target: Protein kinase C theta type (Homo sapiens, UniProt Q04759); experiment: Inhibition of PRKCQ by FRET assay
[27] = molecular target: Rho-associated protein kinase 1 (Homo sapiens, UniProt Q13464); experiment: Inhibition of ROCK1 by FRET assay
[28] = molecular target: Ribosomal protein S6 kinase alpha-3 (Homo sapiens, UniProt P51812); experiment: Inhibition of RPS6KA3 by FRET assay

Sequence of Calcium/calmodulin-dependent protein kinase type 1D (Q8IU85 whole entry): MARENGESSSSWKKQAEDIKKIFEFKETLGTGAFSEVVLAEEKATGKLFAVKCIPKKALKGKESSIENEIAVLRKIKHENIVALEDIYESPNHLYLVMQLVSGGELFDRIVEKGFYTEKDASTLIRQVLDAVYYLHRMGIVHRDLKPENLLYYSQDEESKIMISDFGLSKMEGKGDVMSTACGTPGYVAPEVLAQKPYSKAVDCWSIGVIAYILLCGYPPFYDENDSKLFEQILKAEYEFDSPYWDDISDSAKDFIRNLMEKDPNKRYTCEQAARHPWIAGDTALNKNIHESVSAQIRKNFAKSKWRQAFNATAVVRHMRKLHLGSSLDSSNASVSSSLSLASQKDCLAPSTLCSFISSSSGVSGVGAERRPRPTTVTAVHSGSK
Sequence of Cyclin-dependent kinase 1/cyclin B1 (P06493 whole entry): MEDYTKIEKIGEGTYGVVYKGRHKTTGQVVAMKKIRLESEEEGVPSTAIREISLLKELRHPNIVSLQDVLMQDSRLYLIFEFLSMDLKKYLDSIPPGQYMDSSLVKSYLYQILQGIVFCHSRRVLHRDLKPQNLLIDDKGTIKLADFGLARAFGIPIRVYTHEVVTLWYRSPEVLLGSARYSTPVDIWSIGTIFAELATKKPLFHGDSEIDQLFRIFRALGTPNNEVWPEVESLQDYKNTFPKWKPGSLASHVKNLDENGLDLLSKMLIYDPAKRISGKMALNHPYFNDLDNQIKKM
Sequence of Cyclin-dependent kinase 1/cyclin B1 (P14635 whole entry, further chain): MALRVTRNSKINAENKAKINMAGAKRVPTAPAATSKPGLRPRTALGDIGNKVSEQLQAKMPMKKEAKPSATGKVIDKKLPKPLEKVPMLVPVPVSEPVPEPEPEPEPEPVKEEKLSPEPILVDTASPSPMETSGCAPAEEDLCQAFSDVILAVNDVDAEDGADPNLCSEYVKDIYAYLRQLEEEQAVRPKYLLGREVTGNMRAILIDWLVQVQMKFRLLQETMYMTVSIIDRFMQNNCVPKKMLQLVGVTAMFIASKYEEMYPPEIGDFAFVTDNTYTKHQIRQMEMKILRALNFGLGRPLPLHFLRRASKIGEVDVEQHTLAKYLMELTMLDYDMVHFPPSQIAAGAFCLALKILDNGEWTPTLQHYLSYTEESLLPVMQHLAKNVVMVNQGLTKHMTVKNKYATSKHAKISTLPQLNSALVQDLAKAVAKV
Sequence of Casein kinase I isoform delta (P48730 whole entry, canonical isoform): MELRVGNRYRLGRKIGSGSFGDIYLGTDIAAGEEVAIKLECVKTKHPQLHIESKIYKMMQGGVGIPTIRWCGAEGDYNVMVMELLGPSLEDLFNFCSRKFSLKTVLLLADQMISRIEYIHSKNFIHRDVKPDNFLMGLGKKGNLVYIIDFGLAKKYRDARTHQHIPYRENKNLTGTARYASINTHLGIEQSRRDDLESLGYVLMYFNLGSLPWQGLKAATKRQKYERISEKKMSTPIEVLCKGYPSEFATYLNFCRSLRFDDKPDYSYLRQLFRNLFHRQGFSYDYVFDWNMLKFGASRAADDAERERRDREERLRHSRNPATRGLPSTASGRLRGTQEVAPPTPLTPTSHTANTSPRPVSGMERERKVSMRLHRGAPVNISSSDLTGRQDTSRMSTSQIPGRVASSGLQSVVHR
Sequence of High affinity nerve growth factor receptor (P04629 whole entry): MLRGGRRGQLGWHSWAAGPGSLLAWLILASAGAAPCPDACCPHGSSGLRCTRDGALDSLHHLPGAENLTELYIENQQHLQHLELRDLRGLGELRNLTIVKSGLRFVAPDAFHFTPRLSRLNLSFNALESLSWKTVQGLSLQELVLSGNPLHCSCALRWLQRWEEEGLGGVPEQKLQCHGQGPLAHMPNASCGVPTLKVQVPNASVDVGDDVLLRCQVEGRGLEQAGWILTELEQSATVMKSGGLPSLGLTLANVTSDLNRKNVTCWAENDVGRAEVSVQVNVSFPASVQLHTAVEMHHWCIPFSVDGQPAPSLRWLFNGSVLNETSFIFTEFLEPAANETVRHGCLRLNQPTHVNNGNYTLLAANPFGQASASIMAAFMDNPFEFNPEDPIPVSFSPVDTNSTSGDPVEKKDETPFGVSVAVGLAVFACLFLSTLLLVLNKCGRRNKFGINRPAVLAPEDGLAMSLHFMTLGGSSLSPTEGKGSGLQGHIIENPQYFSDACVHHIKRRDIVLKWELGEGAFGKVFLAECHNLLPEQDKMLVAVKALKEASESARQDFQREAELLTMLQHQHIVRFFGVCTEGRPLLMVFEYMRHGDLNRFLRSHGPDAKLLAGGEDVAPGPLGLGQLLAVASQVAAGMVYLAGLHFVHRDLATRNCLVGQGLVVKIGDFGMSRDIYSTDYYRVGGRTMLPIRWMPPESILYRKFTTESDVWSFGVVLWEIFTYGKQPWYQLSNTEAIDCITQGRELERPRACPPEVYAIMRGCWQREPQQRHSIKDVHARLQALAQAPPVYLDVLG
Sequence of Protein kinase C theta type (Q04759 whole entry): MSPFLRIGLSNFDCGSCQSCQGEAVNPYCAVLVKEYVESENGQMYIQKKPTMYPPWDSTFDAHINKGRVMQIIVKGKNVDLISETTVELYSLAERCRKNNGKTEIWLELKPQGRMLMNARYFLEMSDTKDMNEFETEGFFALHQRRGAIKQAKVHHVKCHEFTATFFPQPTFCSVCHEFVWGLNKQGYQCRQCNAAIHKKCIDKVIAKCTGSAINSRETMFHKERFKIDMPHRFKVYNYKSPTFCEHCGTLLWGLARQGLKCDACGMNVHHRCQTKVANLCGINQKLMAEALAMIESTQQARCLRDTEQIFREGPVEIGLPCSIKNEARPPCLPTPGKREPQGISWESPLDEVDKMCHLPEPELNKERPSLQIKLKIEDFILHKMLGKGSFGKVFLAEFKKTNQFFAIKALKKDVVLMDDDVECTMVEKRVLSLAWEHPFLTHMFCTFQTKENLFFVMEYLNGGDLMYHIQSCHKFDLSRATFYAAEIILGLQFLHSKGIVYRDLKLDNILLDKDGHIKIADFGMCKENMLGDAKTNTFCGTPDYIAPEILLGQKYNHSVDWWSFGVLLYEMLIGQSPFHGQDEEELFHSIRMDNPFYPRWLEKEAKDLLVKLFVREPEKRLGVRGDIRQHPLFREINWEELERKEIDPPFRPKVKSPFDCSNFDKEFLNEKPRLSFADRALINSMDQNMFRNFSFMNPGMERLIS
Sequence of Interleukin-1 receptor-associated kinase 4 (Q9NWZ3 whole entry): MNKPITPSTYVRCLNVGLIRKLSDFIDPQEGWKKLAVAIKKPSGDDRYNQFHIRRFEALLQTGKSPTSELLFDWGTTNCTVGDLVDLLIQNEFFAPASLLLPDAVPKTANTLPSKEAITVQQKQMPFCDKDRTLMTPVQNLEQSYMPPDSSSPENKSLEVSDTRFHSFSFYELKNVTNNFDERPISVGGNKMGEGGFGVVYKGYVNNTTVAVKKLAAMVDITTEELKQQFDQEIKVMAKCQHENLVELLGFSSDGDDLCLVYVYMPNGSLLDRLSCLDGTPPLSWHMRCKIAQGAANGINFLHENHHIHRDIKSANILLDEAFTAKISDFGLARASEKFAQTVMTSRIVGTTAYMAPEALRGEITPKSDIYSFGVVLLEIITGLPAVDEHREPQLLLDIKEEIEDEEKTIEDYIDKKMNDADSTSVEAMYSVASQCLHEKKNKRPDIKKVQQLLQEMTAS
Sequence of Death-associated protein kinase 3 (O43293 whole entry): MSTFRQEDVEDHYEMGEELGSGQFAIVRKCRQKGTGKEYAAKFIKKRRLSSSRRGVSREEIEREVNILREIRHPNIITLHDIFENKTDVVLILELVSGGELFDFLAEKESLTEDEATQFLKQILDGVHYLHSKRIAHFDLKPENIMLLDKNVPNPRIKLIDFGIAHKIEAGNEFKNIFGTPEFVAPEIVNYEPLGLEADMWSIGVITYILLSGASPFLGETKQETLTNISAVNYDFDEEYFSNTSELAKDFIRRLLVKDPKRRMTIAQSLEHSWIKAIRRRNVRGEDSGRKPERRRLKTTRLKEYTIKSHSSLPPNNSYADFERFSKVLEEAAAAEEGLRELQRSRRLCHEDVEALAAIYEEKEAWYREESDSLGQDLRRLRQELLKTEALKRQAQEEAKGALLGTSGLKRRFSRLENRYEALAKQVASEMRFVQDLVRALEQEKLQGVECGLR
Sequence of Serine/threonine-protein kinase pim-2 (Q9P1W9 whole entry): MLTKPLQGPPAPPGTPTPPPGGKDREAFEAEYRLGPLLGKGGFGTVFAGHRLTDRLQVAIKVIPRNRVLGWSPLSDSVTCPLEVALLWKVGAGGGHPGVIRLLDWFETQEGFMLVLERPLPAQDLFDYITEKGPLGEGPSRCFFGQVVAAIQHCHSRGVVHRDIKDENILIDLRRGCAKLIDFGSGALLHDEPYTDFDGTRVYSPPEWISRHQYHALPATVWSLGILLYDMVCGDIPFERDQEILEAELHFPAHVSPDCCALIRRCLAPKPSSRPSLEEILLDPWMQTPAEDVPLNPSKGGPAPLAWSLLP
Sequence of Serine/threonine-protein kinase PLK3 (Q9H4B4 whole entry): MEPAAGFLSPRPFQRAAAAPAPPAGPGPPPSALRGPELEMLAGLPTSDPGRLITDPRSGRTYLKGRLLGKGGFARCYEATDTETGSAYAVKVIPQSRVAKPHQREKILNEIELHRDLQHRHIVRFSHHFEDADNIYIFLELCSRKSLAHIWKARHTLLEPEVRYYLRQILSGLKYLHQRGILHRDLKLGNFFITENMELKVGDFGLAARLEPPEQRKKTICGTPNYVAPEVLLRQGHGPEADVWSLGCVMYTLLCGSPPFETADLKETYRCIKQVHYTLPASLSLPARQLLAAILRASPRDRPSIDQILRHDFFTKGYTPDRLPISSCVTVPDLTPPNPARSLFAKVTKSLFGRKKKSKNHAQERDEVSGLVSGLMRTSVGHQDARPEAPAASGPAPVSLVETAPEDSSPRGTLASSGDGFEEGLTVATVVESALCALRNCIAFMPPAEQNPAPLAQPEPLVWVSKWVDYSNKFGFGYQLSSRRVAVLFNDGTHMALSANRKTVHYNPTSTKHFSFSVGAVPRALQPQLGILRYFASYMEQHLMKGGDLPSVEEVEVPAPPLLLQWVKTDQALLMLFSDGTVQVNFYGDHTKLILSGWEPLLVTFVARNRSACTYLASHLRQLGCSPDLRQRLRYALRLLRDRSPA

- IC50 [1]: 58 nM
Structure (SMILES): CSc1ccccc1Nc1nc(N2CCNC[C@H]2C)nc2c(NCC3CC3)ncnc12

- IC50 [1]: 15 nM
Structure (SMILES): CSc1ccccc1Nc1nc(N2CCC3(CCNCC3)CC2)nc2c(NCC3CC3)ncnc12

- IC50 [1]: 6000 nM
Structure (SMILES): CSc1ccccc1Nc1nc(N2CCNc3ccccc3C2)nc2c(NCC3CC3)ncnc12

- IC50 [1]: 40 nM
Structure (SMILES): CSc1ccccc1Nc1nc(N2CCNC(C)(C)C2)nc2c(NCC3CC3)ncnc12

- IC50 [1]: 110 nM
Structure (SMILES): CSc1ccccc1Nc1nc(N2C[C@@H](C)N[C@@H](C)C2)nc2c(NCC3CC3)ncnc12

- IC50 [1]: 440 nM
Structure (SMILES): CSc1ccccc1Nc1nc(N2CCC[C@@H]3CNC[C@@H]32)nc2c(NCC3CC3)ncnc12

- IC50 [1]: 70 nM
Structure (SMILES): CSc1ccccc1Nc1nc(N2CCNC(C)C2)nc2c(NCC3CC3)ncnc12 (stereo not given)

- IC50 [1]: 300 nM
Structure (SMILES): CSc1ccccc1Nc1nc(N2C[C@@H]3CCCN[C@@H]3C2)nc2c(NCC3CC3)ncnc12

- IC50 [1]: 50 nM
Structure (SMILES): CSc1ccccc1Nc1nc(N2CCC(C3CCNCC3)CC2)nc2c(NCC3CC3)ncnc12

- IC50 [1]: 4600 nM
Structure (SMILES): CSc1ccccc1Nc1nc(N2C[C@@H]3C[C@H]2CN3)nc2c(NCC3CC3)ncnc12

- IC50 [1]: 28 nM
Structure (SMILES): CSc1ccccc1Nc1nc(N2CCC(N3CCNCC3)CC2)nc2c(NCC3CC3)ncnc12

- IC50 [1]: 2 nM
- IC50 [2]: 150 nM
Structure (SMILES): CSc1ccccc1Nc1nc(N2CCC3(CNC3)C2)nc2c(NCC3CC3)ncnc12

- IC50 [2]: < 500 nM
Structure (SMILES): CSc1ccccc1Nc1nc(N2CCNCC2)nc2c(NCC3CC3)ncnc12

- IC50 [1]: 66 nM
Structure (SMILES): CSc1ccccc1Nc1nc(N(C)CC2CCNCC2)nc2c(NCC3CC3)ncnc12

- IC50 [1]: 30 nM
Structure (SMILES): CSc1ccccc1Nc1nc(N2CCC(N3CCN(C)CC3)CC2)nc2c(NCC3CC3)ncnc12

- IC50 [1]: 800 nM
Structure (SMILES): CSc1ccccc1Nc1nc(N2C3CCC2CC(N)C3)nc2c(NCC3CC3)ncnc12 (stereo not given)

- IC50 [1]: 48 nM
- IC50 [3]: < 10000 nM
- IC50 [4]: < 10000 nM
- IC50 [5]: < 10000 nM
- IC50 [6]: < 10000 nM
- IC50 [7]: < 10000 nM
- IC50 [8]: < 10000 nM
- IC50 [9]: < 10000 nM
- IC50 [10]: < 10000 nM
- IC50 [11]: < 10000 nM
- IC50 [12]: < 10000 nM
- IC50 [14]: < 10000 nM
- IC50 [15]: < 10000 nM
- IC50 [16]: < 10000 nM
- IC50 [17]: < 10000 nM
- IC50 [18]: < 10000 nM
- IC50 [19]: < 10000 nM
- IC50 [20]: < 10000 nM
- IC50 [21]: < 10000 nM
- IC50 [22]: < 10000 nM
- IC50 [23]: < 10000 nM
- IC50 [24]: < 10000 nM
- IC50 [25]: < 10000 nM
- IC50 [26]: < 10000 nM
- IC50 [27]: < 10000 nM
- IC50 [28]: < 10000 nM
Structure (SMILES): CSc1ccccc1Nc1nc(N2CCN(C3CCNCC3)CC2)nc2c(NCC3CC3)ncnc12
- IC50 [13]: < 10000 nM

- IC50 [1]: 43 nM
Structure (SMILES): CSc1ccccc1Nc1nc(N2CCC3(CCNC3)C2)nc2c(NCC3CC3)ncnc12 (stereo not given)
